target: T1, 5-lipoxygenase-activating protein (FLAP) (Homo sapiens, UniProt P20292); assay: FLAP Binding Assay; conditions: human polymorphonuclear cell 100,000 g membranes; 3H MK886 or other radioligand; 30 minutes at room temperature
T1 construct: tissue Biological Speciality Corporation; host or cells: human polymorphonuclear cells (100,000 g membranes)
T1 sequence (P20292 1-161): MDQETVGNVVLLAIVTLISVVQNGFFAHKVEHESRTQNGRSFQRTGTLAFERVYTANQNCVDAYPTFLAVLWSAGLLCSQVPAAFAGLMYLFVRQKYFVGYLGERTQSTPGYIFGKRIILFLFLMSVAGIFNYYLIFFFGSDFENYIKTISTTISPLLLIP
Method: A non-limiting example of such a FLAP binding assay is as follows:
Packed human polymorphonuclear cell pellets (1.8×10^9 cells) (Biological Speciality Corporation) were resuspended, lysed and 100,000 g membranes prepared as described (Charleson et al. Mol. Pharmacol, 41, 873-879, 1992). 100,000×g pelleted membranes were resuspended in Tris-Tween assay buffer (100 mM Tris HCl pH 7.4, 140 mM NaCl, 2 mM EDTA, 0.5 mM DTT, 5% glycerol, 0.05% Tween 20) to yield a protein concentration of 50-100 μg/mL. 10 μL membrane suspension was added to 96 well Millipore plate, 78 μL Tris-Tween buffer, 10 μL ^3H MK886 or ^3H 3-[5-(pyrid-2-ylmethoxy)-3-tert-butylthio-1-benzyl-indol-2-yl]-2,2-dimethylpropionic acid (or ^125I MK591 derivative Eggler et al, J. Labelled Compounds and Radiopharmaceuticals, 1994, vXXXIV, 1147)) to 30,000 cpm, 2 μL, inhibitor and incubated for 30 minutes at room temperature. 100 μL ice-cold washed buffer was added to the incubation mixture. Plates were then filtered and washed 3× with 200 μL ice cold Tris-Tween buffer, scintillation bottoms sealed, 100 μL scintillant added, shaken for 15 minutes then counted in a TopCount. Specific binding was determined as defined as total radioactive binding minus non-specific binding in the presence of 10 μM MK886. IC50s were determined using Graphpad prism analysis of drug titration curves.

IC50 | Compound
10 to 100 µM | CCS(=O)(=O)c1c(C(Cc2ccccc2)C(=O)O)n(C)c2ccc(OCc3ccccn3)cc12 (stereo not shown) [Example 11, 2-[3-Ethanesulfonyl-1-methyl-5-(pyridin-2-ylmethoxy)-1H-indol-2-yl]-3-phenyl-propionic acid]
10 to 100 µM | CSc1c(C(Cc2ccccc2)C(=O)O)n(C)c2ccc(OCc3ccccn3)cc12 (stereo not shown) [Example 9, 2-[1-Methyl-3-methylsulfanyl-5-(pyridin-2-ylmethoxy)-1H-indol-2-yl]-3-phenyl-propionic acid]
10 to 100 µM | Cn1c(C(Cc2ccccc2)C(=O)O)c(S(C)(=O)=O)c2cc(OCc3ccccn3)ccc21 (stereo not shown) [Example 10, 2-[3-Methanesulfonyl-1-methyl-5-(pyridin-2-ylmethoxy)-1H-indol-2-yl]-3-phenyl-propionic acid]
100 to 250 µM | Cc1cnc(COc2ccc3c(c2)c(SC(C)(C)C)c(C(Cc2cnc(C)cn2)C(=O)O)n3C)cn1 (stereo not shown) [Example 37, 2-[3-tert-Butylsulfanyl-1-methyl-5-(5-methyl-pyrazin-2-ylmethoxy)-1H-indol-2-yl]-3-(5-methyl-pyrazin-2-yl)-propionic acid]

Source: patent US20100298343A1, “5-LIPOXYGENASE-ACTIVATING PROTEIN (FLAP) INHIBITORS” (priority 2007, published 2010)
